Test results: PubChem BioAssay (NCI)
Several values for one entry are separate records, joined by “and”; a condition that tells them apart may be missing. Equal entries are not always repeated.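 Cells were grown in 96-well plates and exposed to each compound for 48 hours at five concentrations; endpoints were interpolated linearly between bracketing concentrations, or set to the highest concentration if not reached. GI50: concentration for 50% inhibition of growth. At the TGI there is no net growth.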

Columns and labels:
Experiment in all cases: NCI tumour cell line growth inhibition, 48 h
CAKI-1 renal = system: CAKI-1 renal
TK-10 renal = system: TK-10 renal
CCRF-CEM leukemia = system: CCRF-CEM leukemia
A498 renal = system: A498 renal
SF-539 CNS = system: SF-539 CNS
HT29 colon = system: HT29 colon
OVCAR-3 ovarian = system: OVCAR-3 ovarian
NCI-H460 lung = system: NCI-H460 lung
786-0 renal = system: 786-0 renal
LOX IMVI melanoma = system: LOX IMVI melanoma
MALME-3M melanoma = system: MALME-3M melanoma
U251 CNS = system: U251 CNS
SNB-19 CNS = system: SNB-19 CNS
MOLT-4 leukemia = system: MOLT-4 leukemia
RPMI-8226 leukemia = system: RPMI-8226 leukemia
HOP-92 NSCLC = system: HOP-92 NSCLC

| Structure (SMILES) | TGI (CAKI-1 renal) [µM] | TGI (TK-10 renal) [µM] | TGI (CCRF-CEM leukemia) [µM] | TGI (A498 renal) [µM] | TGI (SF-539 CNS) [µM] | TGI (HT29 colon) [µM] | TGI (OVCAR-3 ovarian) [µM] | TGI (NCI-H460 lung) [µM] | TGI (786-0 renal) [µM] | TGI (LOX IMVI melanoma) [µM] | TGI (MALME-3M melanoma) [µM] | TGI (U251 CNS) [µM] | TGI (SNB-19 CNS) [µM] | TGI (MOLT-4 leukemia) [µM] | TGI (RPMI-8226 leukemia) [µM] | TGI (HOP-92 NSCLC) [µM] | GI50 (OVCAR-3 ovarian) | GI50 (RPMI-8226 leukemia) [µM] | GI50 (MALME-3M melanoma) |
| --- | --- | --- | --- | --- | --- | --- | --- | --- | --- | --- | --- | --- | --- | --- | --- | --- | --- | --- | --- |
| C[C@H]1ON2CCC[C@@H]2[C@@H]1C(=O)N1C2CC3CCC2(CS1(=O)=O)C3(C)C (stereo partly specified) | > 100 | > 100 | > 100 | > 100 | > 100 | > 100 | > 100 | > 100 | > 100 | > 100 | > 100 | > 100 | > 100 |  |  |  |  |  |  |
| CCC1c2[nH]c3ccccc3c2C[C@H]2C(=O)NC(Cc3ccccc3)C(=O)N12 (stereo partly specified) | 98.8 | > 100 |  | > 100 |  | 52.6 | 94.2 |  | > 100 | 45.8 | 43.1 | 56.3 | > 100 | 56.9 | 51.3 | 72.8 |  |  |  |
| O=[N+]([O-])c1ccc2nc(/C=C(\O)c3ccccc3)c(/C=C(\O)c3ccc(Cl)cc3)nc2c1 | > 100 | > 100 | > 100 | > 100 | > 100 | > 100 | > 100 | > 100 | > 100 |  | > 100 | > 100 | > 100 | > 100 |  |  |  |  |  |
| NC(=S)NS(=O)(=O)c1ccc(F)cc1 | > 100 | > 100 | > 100 |  | > 100 | > 100 | > 100 | > 100 | > 100 | > 100 | > 100 | > 100 | > 100 | > 100 | > 100 | > 100 |  |  |  |
| CC(=O)/C(=C\n1c(=S)[nH]c2ccc([N+](=O)[O-])cc21)C(=O)Nc1ccccc1C | > 100 |  | > 100 | > 100 | > 100 | > 100 | > 100 | > 100 | > 100 | > 100 | > 100 | > 100 |  | > 100 | > 100 |  |  |  |  |
| CC(C)(C)OC(=O)N1CCC[C@H]1CSC[C@@H]1CCCN1C(=O)OC(C)(C)C | > 100 | > 100 | 44.8 |  |  | 34.9 | 90.3 | > 100 | > 100 | 35.2 | 63.5 | 90.7 | > 100 | 37.5 |  | 39.5 |  |  |  |
| CCC/C(Cl)=N/OC(=O)Nc1cccc(F)c1 | 7.77 | > 19.7 |  |  |  | 9.35 | 6.6 | 39 | 3.2 | 5.42 | 3.11 | 32.6 | 32.3 | 5.55 | 8.08 | 3.18 |  |  |  |
| Cc1ccc2c(c1)C(=O)c1ccc(C)nc1C2=O | > 100 | > 100 | > 100 | > 100 | 68.5 | > 100 | > 100 |  | > 100 | 75.6 | 52.5 | > 100 | 63.6 | > 100 | > 100 |  |  |  |  |
| O=C(N/N=C1\CCc2ccccc21)N/N=C1\CCc2ccccc21 | > 100 | > 100 | > 100 | > 100 | > 100 | > 100 | > 100 | > 100 | > 100 | > 100 | > 100 | > 100 | > 100 | > 100 | > 100 |  |  |  |  |
| CC1(C)CC(C2CC(C)(C)CC(C)(C)[C@H]2O)[C@@H](O)C(C)(C)C1 (stereo partly specified) |  | > 100 | > 100 |  | > 100 | > 100 | > 100 | > 100 | > 100 | > 100 | > 100 | > 100 | > 100 | > 100 | > 100 |  |  |  |  |
| COC1(CCO)CC=CCC1(CCO)OC (stereo unspecified) | > 100 | > 100 | > 100 |  |  | > 100 | > 100 | > 100 | > 100 | > 100 | > 100 |  | > 100 | > 100 | > 100 | > 100 |  |  |  |
| C=C1C(=O)OC2C3C(=C)[C@@H](OC(C)=O)CC3C(C)=CC(OC(=O)C(C)(O)C(C)OC(C)=O)[C@@H]12 (stereo partly specified) | 12.4 | 18.4 | 7.51 | 32.3 | 31.9 | 19.4 | 21.8 | 44 | 24.2 | 19.4 | 20.2 | 30.5 | > 100 | > 100 | 65.7 |  |  |  |  |
| COC(=O)/C=C(\S/C(=C(/c1ccccc1)n1cc(C(=O)OC)c(C(=O)OC)n1)c1ccccc1)C(=O)OC | 6.66 | 9.22 | 31.3 | > 100 | 32.4 | 18.6 | 8.29 | > 100 | > 100 | 21.4 | 31.9 | 66.1 | 40 | 12.4 | 26.9 |  |  |  |  |
| COc1cc(-c2c(C(C)=O)c(-c3ccccc3)n(C3OC(COC(C)=O)C(OC(C)=O)C(OC(C)=O)C3OC(C)=O)c(=S)c2C#N)ccc1O (stereo unspecified) | > 100 |  | > 100 | > 100 |  | > 100 | > 100 | > 100 | > 100 | > 100 | > 100 | > 100 | > 100 | > 100 | > 100 | > 100 | 44.1 µM and > 100 µM | 34.5 | 37 µM and > 100 µM |
| O=C1c2cc([N+](=O)[O-])cnc2S(=O)(=O)N1c1ccc(Oc2ccccc2)cc1 |  | > 100 | > 100 |  |  |  | > 100 | > 100 | > 100 | > 100 | > 100 | > 100 | > 100 | > 100 | > 100 | > 100 |  |  |  |
| N#Cc1c(-c2ccccc2)cc(Nc2ccc(F)cc2)n2c1nc1ccccc12 | > 100 | > 54 |  | 12 | > 22.7 | 6.43 | 19.3 | > 100 | 10 | > 30.4 | > 28.4 | 8.11 | > 100 | > 100 | > 100 |  |  |  |  |
